In ChEMBL document CHEMBL1201862, “PubChem BioAssay data set” (2004):
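Five compound concentrations were applied to cells in 96-well plates for 48 hours; endpoints were derived by simple linear interpolation of the resulting dose-response curve. At the GI50, growth is halved.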 Calls of active or inactive are those of the source. Cut-off read from the data, not from the text of the source: active = GI50 up to about 1.1 µM and inactive = higher.

Legend:
Assay in all cases: NCI anticancer screen, dose series, 48 h
CAKI-1 = system: CAKI-1
OVCAR-5 = system: OVCAR-5
HCC 2998 = system: HCC 2998
EKVX = system: EKVX
KM-20L2 = system: KM-20L2
SF-268 = system: SF-268
OVCAR-8 = system: OVCAR-8
SR = system: SR
M14 = system: M14
SK-MEL-5 = system: SK-MEL-5
SNB-75 = system: SNB-75
M19-MEL = system: M19-MEL
UO-31 = system: UO-31
NCI-H23 = system: NCI-H23
DMS-273 = system: DMS-273
KM12 = system: KM12
SW-620 = system: SW-620
SK-OV-3 = system: SK-OV-3
LXFL 529 = system: LXFL 529
Malme-3M = system: Malme-3M
A498 = system: A498
HCT-116 = system: HCT-116
RPMI-8226 = system: RPMI-8226
SK-MEL-28 = system: SK-MEL-28
SF-295 = system: SF-295
ACHN = system: ACHN
MOLT-4 = system: MOLT-4
NCI-H226 = system: NCI-H226
OVCAR-4 = system: OVCAR-4
SNB-19 = system: SNB-19
NCI-H522 = system: NCI-H522
A549 = system: A549
RXF 393 = system: RXF 393
OVCAR-3 = system: OVCAR-3
K562 = system: K562
IGROV-1 = system: IGROV-1
NCI-H460 = system: NCI-H460
TK-10 = system: TK-10
DLD-1 = system: DLD-1
786-0 = system: 786-0
UACC-257 = system: UACC-257
SK-MEL-2 = system: SK-MEL-2
U-251 = system: U-251
HOP-18 = system: HOP-18
SN12C = system: SN12C
HOP-62 = system: HOP-62
HCT-15 = system: HCT-15
LOX IMVI = system: LOX IMVI
CCRF-CEM = system: CCRF-CEM
DMS-114 = system: DMS-114
COLO 205 = system: COLO 205
HT-29 = system: HT-29
UACC-62 = system: UACC-62
SNB-78 = system: SNB-78
HL-60 = system: HL-60

Cc1cc(C)c2c(c1)CSCc1cc(C)cc(C)c1-2
GI50 (CAKI-1): 26.2 µM (inactive) | GI50 (OVCAR-5): 29.9 µM (inactive) | GI50 (HCC 2998): 35.2 µM (inactive) | GI50 (EKVX): 24.2 µM (inactive) | GI50 (KM-20L2): 35.1 µM (inactive) | GI50 (SF-268): 38.7 µM (inactive) | GI50 (OVCAR-8): 33 µM (inactive) | GI50 (SR): 23.9 µM (inactive) | GI50 (M14): 22.6 µM (inactive) | GI50 (SK-MEL-5): 21.6 µM (inactive) | GI50 (SNB-75): 37.3 µM (inactive) | GI50 (M19-MEL): 25.1 µM (inactive) | GI50 (UO-31): 39.4 µM (inactive) | GI50 (NCI-H23): 36.9 µM (inactive) | GI50 (DMS-273): 58.1 µM (inactive) | GI50 (KM12): 42.6 µM (inactive) | GI50 (SW-620): 71.8 µM (inactive) | GI50 (SK-OV-3): 88.9 µM (inactive) | GI50 (LXFL 529): 57.5 µM (inactive) | GI50 (Malme-3M): 18.1 µM (inactive) | GI50 (A498): 28.1 µM (inactive) | GI50 (HCT-116): 22 µM (inactive) | GI50 (RPMI-8226): 22.9 µM (inactive) | GI50 (SK-MEL-28): 1.72 µM (inactive) | GI50 (SF-295): 25.6 µM (inactive) | GI50 (ACHN): 35.4 µM (inactive) | GI50 (MOLT-4): 21.1 µM (inactive) | GI50 (NCI-H226): 38.8 µM (inactive) | GI50 (OVCAR-4): 39.2 µM (inactive) | GI50 (SNB-19): 44.8 µM (inactive) | GI50 (NCI-H522): 22.5 µM (inactive) | GI50 (A549): 30.9 µM (inactive) | GI50 (RXF 393): 39.4 µM (inactive) | GI50 (OVCAR-3): 30.3 µM (inactive) | GI50 (K562): 32.8 µM (inactive) | GI50 (IGROV-1): 34.1 µM (inactive) | GI50 (NCI-H460): 24.2 µM (inactive) | GI50 (TK-10): > 100 µM (inactive) | GI50 (DLD-1): 33.3 µM (inactive) | GI50 (786-0): 32.5 µM (inactive) | GI50 (UACC-257): 24.8 µM (inactive) | GI50 (SK-MEL-2): 21.3 µM (inactive) | GI50 (U-251): 19.8 µM (inactive) | GI50 (HOP-18): 37.6 µM (inactive) | GI50 (SN12C): 35.2 µM (inactive) | GI50 (HOP-62): 27.6 µM (inactive) | GI50 (HCT-15): 32.4 µM | GI50 (LOX IMVI): 17.3 µM (inactive) | GI50 (CCRF-CEM): 23 µM (inactive) | GI50 (DMS-114): 25.2 µM (inactive) | GI50 (COLO 205): 26.5 µM (inactive) | GI50 (HT-29): 19.3 µM (inactive) | GI50 (UACC-62): 23.4 µM (inactive) | GI50 (SNB-78): 25.1 µM (inactive) | GI50 (HL-60): 21.1 µM (inactive)
